# Measurements published in US20260158103A1, “USE OF CYCLOSPORINE ANALOGUES AS ANTITHROMBOTIC AGENTS” (Hepion Pharmaceuticals, Inc., priority 2020, published 2026).
# “Also recorded” adds a separate entry of the source. Where a SMILES comes first, the peptide text is derived from it. [ ]: non-standard residue; d: D form. NMeThr(4R-Me,4-(CH2)6NHAc) = CN[C@H](C(=O)O)[C@H](O)[C@H](C)CCCCCCNC(C)=O; NMeL = CN[C@@H](CC(C)C)C(=O)O; NMeV = CN[C@H](C(=O)O)C(C)C; dNMeA = CN[C@H](C)C(=O)O; Abu = CC[C@H](N)C(=O)O
# Tests used:
# [1] = system: human platelet aggregation; assay: Platelet aggregometry (washed platelets, lumi-aggregometer, % Light Transmittance); format: cell-based
# Experimental: (§1) Platelet isolation. Blood (40 ml) was obtained from healthy volunteers who had not taken any drugs known to affect platelet function for 2 weeks prior to the study. Prostacyclin-washed platelet suspensions (2.5×10^8/ml) were prepared in Tyrode's buffer.
# Platelet aggregometry. Washed platelets (500 μl/test) were pre-incubated (2 minutes at 37° C.) in a lumi-aggregometer (Chronolog, Havertown, PA, USA) with either vehicle (0.1% DMSO) or CRV431 (0.01-3 μM). Platelet aggregation was then initiated with collagen (1 μg/mL) or thrombin (0.1 U/mL) (Chronolog) and monitored by Aggro-Link software for a further 6 minutes. Extent of platelet aggregation was measured as % Light Transmittance between minutes 2 and 6 and determined by Aggro-Link Software.
# (§2) Statistics. Statistical analysis was performed using GraphPad Prism 7.0 software. All means are reported with SEM. One-way ANOVA with Dunnet's multiple comparisons test was performed for aggregation studies, and a Repeated-measures One-way ANOVA with Dunnet's multiple comparisons test was performed for procoagulant platelet formation studies. Each N represents an experiment from an independent blood donor. A P-value less than 0.05 was considered significant.
# [2] = system: human procoagulant platelet formation (platelet PS exposure); assay: Procoagulant platelet formation (annexin-V-FITC binding to exposed phosphatidylserine, flow cytometry); format: cell-based
# Experimental: as §1
# Procoagulant platelet formation studies. […] Procoagulant platelet formation was assessed by measuring annexin-V-FITC binding to exposed phosphatidylserine (PS) by flow cytometry as described previously. Flow cytometry was performed utilizing a BD Fortessa X20 flow cytometer equipped with a blue (488 nm) laser and […] band pass filters to detect FITC. Percent PS-positive platelets were determined post-acquisition using FlowJo software.
# as §2
SMILES,"inhibition of platelet aggregation (positive control) ([1]; single blood donor (FIG. 3B), agonist and concentration not given)","inhibition of platelet aggregation induced by collagen ([1]; collagen 1 μg/mL, CRV431 0.01-3 μM, washed human platelets, N=10, P>0.05)","inhibition of platelet aggregation at the highest concentration tested ([1]; single blood donor (FIG. 3A), highest concentration tested)","inhibition of platelet aggregation induced by thrombin ([1]; thrombin 0.1 U/mL, CRV431 0.01-3 μM, washed human platelets, N=9, P>0.05)","inhibition of platelet PS-exposure, a marker of procoagulant platelet formation ([2]; CRV431 at 1 and 3 μM, activated by collagen and thrombin, N=8, P<0.01 / P<0.001 vs. vehicle control)","percentage of phosphatidylserine (PS)-positive platelets ([2]; increasing concentrations of CRV431, induced by collagen (10 μg/ml) and thrombin (0.1 U/ml), flow cytometry)"
"CC(=O)Oc1ccccc1C(=O)O [acetylsalicylic acid, reference compound]",effectively inhibited aggregation; also recorded: platelet aggregation is inhibited,–,–,–,–,–
"CC[C@@H]1NC(=O)[C@H]([C@H](O)[C@H](C)CCCCCCNC(C)=O)N(C)C(=O)[C@H](C(C)C)N(C)C(=O)[C@H](CC(C)C)N(C)C(=O)[C@H](CC(C)C)N(C)C(=O)[C@@H](C)NC(=O)[C@H](C)NC(=O)[C@H](CC(C)C)N(C)C(=O)[C@H](C(C)C)NC(=O)[C@H](CC(C)C)N(C)C(=O)[C@@H](C)N(C)C1=O [CRV431] (cyclo(A[dA][NMeL][NMeL][NMeV][NMeThr(4R-Me,4-(CH2)6NHAc)][Abu][dNMeA][NMeL]V[NMeL]))",–,did not inhibit platelet aggregation,does not inhibit platelet aggregation,did not inhibit platelet aggregation,significantly inhibited platelet PS-exposure,reduce the percentage of phosphatidylserine (PS)-positive platelets
